Data taken from patent US9018242B2, “Salt form of tyrosine kinase inhibitor” (Jiangsu Simcere Pharmaceutical R&D Co., Ltd, priority 2011, dated 2015).
Converted amounts (≈) assume the structure as drawn.

Tests used:
[1] = Hygroscopicity measurement (weight gain); format: physicochemical; conditions: 25±1° C., relative humidity 80±2%, 24 hours
Experimental: The method for measuring the hygroscopicity may include: placing a certain amount of a sample to be tested into a precisely weighed glass weighing bottle (m1) with a plug and precisely weighing (m2); placing the opened weighing bottle into a thermostatic dryer (with saturated ammonium sulfate solution placed at the bottom, with a relative humidity of 80±2%) at 25±1° C. for 24 hours; covering the weighing bottle with the plug and precisely weighing (m3), and calculating the percent of weight gain of the sample to be tested according to the following equation: […]
The measurement method includes: placing a certain amount of sample to be tested into a precisely weighed glass weighing bottle (m1) with a plug and precisely weighing (m2); placing the opened weighing bottle in a thermostated dryer (with saturated ammonium sulfate solution placed at the bottom, with a relative humidity of 80±2%) at 25±1° C. for 24 hours; covering the weighing bottle with the plug and precisely weighing (m3).
Characterization of the hygroscopicity and definition of the hygroscopic weight gain:
Deliquescence: sufficient moisture was absorbed to form liquid;
Slight hygroscopicity: hygroscopic weight gain was less than 2% and not less than 0.2%: […]

[2] = Solubility in water by HPLC; format: physicochemical; conditions: purified water, 25° C.; for solubility at 30 min: thermodynamic from solid
Experimental: Liquid chromatograph: Agilent 1200 HPLC system (diode array detector), ChemStation
Mobile phase: acetonitrile/water
Detection wavelength: 264 nm
About 100 mg sample to be tested was precisely weighed and placed into a 100 ml graduated flask at 25° C.; an appropriate amount of solvent [acetonitrile/water (80:20)] was added to dissolve the sample under ultrasonic sound, and the solution was diluted to a given scale and shaken up; 10 μl resulting solution was precisely measured and loaded into the liquid chromatograph, the chromatogram was recorded, and the peak area Scontrol was measured.
10 ml purified water was measured and placed into a 25 ml Kjeldahl flask. The sample to be tested was gradually added at 25° C. until an insoluble solid appeared in the solution. The solution was treated under ultrasonic sound for 30 min and the insoluble solid was filtered off. 10 μl filtrate was precisely weighed and loaded into the liquid chromatograph, the chromatogram was recorded, and the peak area Stest was measured.

[3] = Plasma exposure (AUC) in rats after gavage administration; format: in vivo; conditions: rat, po, male SD rats, 10 mg/kg (based on pharmaceutically active compound), salts dissolved in pure water, active compound as suspension in 0.5% CMC, up to 24 h
Experimental: Laboratory animal: male SD rats
Dosage: 10 mg/kg (based on pharmaceutically active compound)
Formulation for salts: dissolving in pure water
(§1) Formulation for pharmaceutically active compound: suspension in CMC (carboxymethylcellulose), 0.5%
Animal Grouping and Testing Course:
Each group includes three male rats having a weight of 180 to 210 g. Gavage administration was performed; the blood was collected at point of time: 5 min, 15 min, 30 min, 45 min, 1 h, 2 h, 4 h, 6 h, 10 h and 24 h; about 250 μl blood was collected from orbital venous plexus into a heparin-containing tube, centrifuged, and 100 μl plasma was used for LC-MS analysis.

[4] = system: human colon cancer HT-29 xenografts; test: Therapeutic effect on human colon cancer HT-29 xenografts in nude mice; format: in vivo, BALB/cA-nude mice; conditions: 40 mg/kg (based on pharmaceutically active compound), gavage for 21 days, L-malate in pure water, active compound as suspension in 0.5% CMC
Experimental: Laboratory animal: BALB/cA-nude mice, 6-7 weeks, ♀
Dosage: 40 mg/kg (based on pharmaceutically active compound)
Formulation for L-malate: dissolving in pure water
as §1
Nude mice were subcutaneously inoculated with human colon cancer HT-29 cells. After the tumor grew to a size of 150 to 250 mm^3, the animals were randomly divided into three groups (d0). The animals were continuously administered through gavage for 21 days, and the tumor volume was measured 2 to 3 times per week. The tumor volume (V) was calculated according to the equation: V=1/2×a×b^2, where a and b represent length and width respectively.
The relative proliferation of tumor=T/C(%)=(T−T0)/(C−C0)×100, where T and C are the tumor volumes at the end of experiment, T0 and C0 are the tumor volumes at the start of experiment; the tumor inhibition rate=1−T/C(%).

Which results are given for `CCN(CC)CCNC(=O)c1c(C)[nH]c2c1CCC/C2=C1/C(=O)Nc2ccc(F)cc21.O=C(O)CC(O)(CC(=O)O)C(=O)O` [Citrate, (Z)—N-[2-(diethylamino)ethyl]-2-methyl-7-(1,2-dihydro-5-fluoro-2-oxo-3H-indol-3-ylidene)-4,5,6,7-tetrahydro-1H-indol-3-carboxamide citrate]?
Hygroscopicity [1]: Slight hygroscopicity (hygroscopic weight gain was less than 2% and not less than 0.2%); solubility at 30 min [2]: 38.2 mg/mL; AUC(0-t) [3]: 838 ng·h/mL

What does the source list for `CCN(CC)CCNC(=O)c1c(C)[nH]c2c1CCC/C2=C1/C(=O)Nc2ccc(F)cc21.Cl` [Hydrochloride, (Z)—N-[2-(diethylamino)ethyl]-2-methyl-7-(1,2-dihydro-5-fluoro-2-oxo-3H-indol-3-ylidene)-4,5,6,7-tetrahydro-1H-indol-3-carboxamide hydrochloride]?
Hygroscopicity [1]: Almost no hygroscopicity; solubility at 30 min [2]: 22.8 mg/mL; AUC(0-t) [3]: 185 ng·h/mL

Which Hygroscopicity [1] does the source give for “(Z)—N-[2-(diethylamino)ethyl]-2-methyl-7-(1,2-dihydro-5-fluoro-2-oxo-3H-indol-3-ylidene)-4,5,6,7-tetrahydro-1H-indol-3-carboxamide L-mandelate” here?
The Hygroscopicity was “Hygroscopicity (hygroscopic weight gain was less than 15% and not less than 2%)”.

And the “Solubility in Water” value [2]?
Its value is 14.7218 mg/mL.

Which results are given for `CCN(CC)CCNC(=O)c1c(C)[nH]c2c1CCC/C2=C1/C(=O)Nc2ccc(F)cc21` [Pharmaceutically active compound, (Z)—N-[2-(diethylamino)ethyl]-2-methyl-7-(1,2-dihydro-5-fluoro-2-oxo-3H-indol-3-ylidene)-4,5,6,7-tetrahydro-1H-indol-3-carboxamide]?
Hygroscopicity [1]: Almost no hygroscopicity; solubility at 30 min [2]: 0.02 mg/mL (≈ 47.1 µM); AUC(0-t) [3]: 128 ng·h/mL; Tumor Inhibition Rate [4]: 40%

Which results are given for `CCN(CC)CCNC(=O)c1c(C)[nH]c2c1CCC/C2=C1/C(=O)Nc2ccc(F)cc21.O=C(O)C(O)C(O)C(=O)O` [L-tartrate, (Z)—N-[2-(diethylamino)ethyl]-2-methyl-7-(1,2-dihydro-5-fluoro-2-oxo-3H-indol-3-ylidene)-4,5,6,7-tetrahydro-1H-indol-3-carboxamide L-tartrate]?
Hygroscopicity [1]: Slight hygroscopicity (hygroscopic weight gain was less than 2% and not less than 0.2%); solubility at 30 min [2]: 10.6 mg/mL

What does the source list for `CCN(CC)CCNC(=O)c1c(C)[nH]c2c1CCC/C2=C1/C(=O)Nc2ccc(F)cc21.Cc1ccc(S(=O)(=O)O)cc1` [P-toluenesulfonate, (Z)—N-[2-(diethylamino)ethyl]-2-methyl-7-(1,2-dihydro-5-fluoro-2-oxo-3H-indol-3-ylidene)-4,5,6,7-tetrahydro-1H-indol-3-carboxamide p-toluenesulfonate]?
Hygroscopicity [1]: Slight hygroscopicity (hygroscopic weight gain was less than 2% and not less than 0.2%); solubility at 30 min [2]: 0.419 mg/mL

With `CCN(CC)CCNC(=O)c1c(C)[nH]c2c1CCC/C2=C1/C(=O)Nc2ccc(F)cc21.O=P(O)(O)O` [Phosphate, (Z)—N-[2-(diethylamino)ethyl]-2-methyl-7-(1,2-dihydro-5-fluoro-2-oxo-3H-indol-3-ylidene)-4,5,6,7-tetrahydro-1H-indol-3-carboxamide phosphate] as the compound, how does the Hygroscopicity [1] read?
Its Hygroscopicity is “Slight hygroscopicity (hygroscopic weight gain was less than 2% and not less than 0.2%)”.

What about the solubility at 30 min [2] of the same compound?
Its solubility at 30 min is 29.7 mg/mL.

What about the AUC(0-t) [3] of the same compound?
Its AUC(0-t) is 322 ng·h/mL.

With `Br.CCN(CC)CCNC(=O)c1c(C)[nH]c2c1CCC/C2=C1/C(=O)Nc2ccc(F)cc21` [Hydrobromate, (Z)—N-[2-(diethylamino)ethyl]-2-methyl-7-(1,2-dihydro-5-fluoro-2-oxo-3H-indol-3-ylidene)-4,5,6,7-tetrahydro-1H-indol-3-carboxamide hydrobromate] as the compound, how does the Hygroscopicity [1] read?
Its Hygroscopicity is “Almost no hygroscopicity”.

And the “Solubility in Water” value [2]?
The value was 3.5922 mg/mL.

With `CCN(CC)CCNC(=O)c1c(C)[nH]c2c1CCC/C2=C1/C(=O)Nc2ccc(F)cc21.CS(=O)(=O)O` [Methanesulfonate, (Z)—N-[2-(diethylamino)ethyl]-2-methyl-7-(1,2-dihydro-5-fluoro-2-oxo-3H-indol-3-ylidene)-4,5,6,7-tetrahydro-1H-indol-3-carboxamide methanesulfonate] as the compound, how does the Hygroscopicity [1] read?
Its Hygroscopicity is “Strong hygroscopicity (hygroscopic weight gain was not less than 15%)”.

And the solubility at 30 min [2]?
Its solubility at 30 min is 12.3 mg/mL.

For `CCN(CC)CCNC(=O)c1c(C)[nH]c2c1CCC/C2=C1/C(=O)Nc2ccc(F)cc21.O=C(O)CCC(=O)O` [Succinate, (Z)—N-[2-(diethylamino)ethyl]-2-methyl-7-(1,2-dihydro-5-fluoro-2-oxo-3H-indol-3-ylidene)-4,5,6,7-tetrahydro-1H-indol-3-carboxamide succinate], which Hygroscopicity [1] is on record?
Its Hygroscopicity is “Slight hygroscopicity (hygroscopic weight gain was less than 2% and not less than 0.2%)”.

What about the solubility at 30 min [2] of the same compound?
Its solubility at 30 min is 13.4 mg/mL.

With `CCN(CC)CCNC(=O)c1c(C)[nH]c2c1CCC/C2=C1/C(=O)Nc2ccc(F)cc21.O=C(O)/C=C\C(=O)O` [Maleate, (Z)—N-[2-(diethylamino)ethyl]-2-methyl-7-(1,2-dihydro-5-fluoro-2-oxo-3H-indol-3-ylidene)-4,5,6,7-tetrahydro-1H-indol-3-carboxamide maleate] as the compound, how does the Hygroscopicity [1] read?
The Hygroscopicity was “Slight hygroscopicity (hygroscopic weight gain was less than 2% and not less than 0.2%)”.

What about the solubility at 30 min [2] of the same compound?
Its solubility at 30 min is 1.32 mg/mL.

With `CCN(CC)CCNC(=O)c1c(C)[nH]c2c1CCC/C2=C1/C(=O)Nc2ccc(F)cc21.O=S(=O)(O)O` [Sulfate, (Z)—N-[2-(diethylamino)ethyl]-2-methyl-7-(1,2-dihydro-5-fluoro-2-oxo-3H-indol-3-ylidene)-4,5,6,7-tetrahydro-1H-indol-3-carboxamide sulfate] as the compound, how does the Hygroscopicity [1] read?
The Hygroscopicity was “Slight hygroscopicity (hygroscopic weight gain was less than 2% and not less than 0.2%)”.

What about the solubility at 30 min [2] of the same compound?
Its solubility at 30 min is 0.236 mg/mL.

For `CC(O)C(=O)O.CCN(CC)CCNC(=O)c1c(C)[nH]c2c1CCC/C2=C1/C(=O)Nc2ccc(F)cc21` [Lactate, (Z)—N-[2-(diethylamino)ethyl]-2-methyl-7-(1,2-dihydro-5-fluoro-2-oxo-3H-indol-3-ylidene)-4,5,6,7-tetrahydro-1H-indol-3-carboxamide lactate], which Hygroscopicity [1] is on record?
The Hygroscopicity was “Hygroscopicity (hygroscopic weight gain was less than 15% and not less than 2%)”.

And the solubility at 30 min [2]?
The solubility at 30 min was 24 mg/mL.

And the AUC(0-t) [3]?
Its AUC(0-t) is 652 ng·h/mL.

For `CC(=O)O.CCN(CC)CCNC(=O)c1c(C)[nH]c2c1CCC/C2=C1/C(=O)Nc2ccc(F)cc21` [Acetate, (Z)—N-[2-(diethylamino)ethyl]-2-methyl-7-(1,2-dihydro-5-fluoro-2-oxo-3H-indol-3-ylidene)-4,5,6,7-tetrahydro-1H-indol-3-carboxamide acetate], which Hygroscopicity [1] is on record?
Its Hygroscopicity is “Strong hygroscopicity (hygroscopic weight gain was not less than 15%)”.

And the solubility at 30 min [2]?
The solubility at 30 min was 30.7 mg/mL.

For `CCN(CC)CCNC(=O)c1c(C)[nH]c2c1CCC/C2=C1/C(=O)Nc2ccc(F)cc21.O=C(O)/C=C/C(=O)O` [Fumarate, (Z)—N-[2-(diethylamino)ethyl]-2-methyl-7-(1,2-dihydro-5-fluoro-2-oxo-3H-indol-3-ylidene)-4,5,6,7-tetrahydro-1H-indol-3-carboxamide fumarate], which Hygroscopicity [1] is on record?
The Hygroscopicity was “Slight hygroscopicity (hygroscopic weight gain was less than 2% and not less than 0.2%)”.

And the solubility at 30 min [2]?
The solubility at 30 min was 0.0168 mg/mL.

Which results are given for `CCN(CC)CCNC(=O)c1c(C)[nH]c2c1CCC/C2=C1/C(=O)Nc2ccc(F)cc21.O=S(=O)(O)c1ccccc1` [Benzenesulfonate, (Z)—N-[2-(diethylamino)ethyl]-2-methyl-7-(1,2-dihydro-5-fluoro-2-oxo-3H-indol-3-ylidene)-4,5,6,7-tetrahydro-1H-indol-3-carboxamide benzenesulfonate]?
Hygroscopicity [1]: Hygroscopicity (hygroscopic weight gain was less than 15% and not less than 2%); solubility at 30 min [2]: 19.2 mg/mL
